Source: patent US8022205B2, “Pyrimidine derivatives as PI3K inhibitor and use thereof” (Chugai Seiyaku Kabushiki Kaisha, priority 2006, dated 2011)
Where a name gives a salt, the structure may show the parent alone.

What was measured:
[1] = tested on: human prostate cancer cell line PC3; experiment: Cell proliferation inhibitory activity (Cell Counting Kit-8), prostate cancer PC3; type: cell-based; details: 96 h, PC3, 4 days
In short: (§1)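 PC3 (3000 cells/well) or NCI-H460 (1000 cells/well) exposed to compound for 4 days at 37 °C in CO2. CCK-8 absorbance at 450 nm (reference 615 nm); percent proliferation inhibition calculated at 2.5 µM.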

human PI3K(p110α/p85α) = human PI3K(p110α/p85α) (Homo sapiens, UniProt P42336); experiment: Measurement of PI3K inhibitory activity (AlphaScreen GST Detection Kit); type: biochemical; details: 10 μM ATP, 4 μM PI(4,5)P2, read-out: Enzyme inhibitory activity (IC50, μM) PI3K α
Chain of human PI3K(p110α/p85α) (P42336 whole entry): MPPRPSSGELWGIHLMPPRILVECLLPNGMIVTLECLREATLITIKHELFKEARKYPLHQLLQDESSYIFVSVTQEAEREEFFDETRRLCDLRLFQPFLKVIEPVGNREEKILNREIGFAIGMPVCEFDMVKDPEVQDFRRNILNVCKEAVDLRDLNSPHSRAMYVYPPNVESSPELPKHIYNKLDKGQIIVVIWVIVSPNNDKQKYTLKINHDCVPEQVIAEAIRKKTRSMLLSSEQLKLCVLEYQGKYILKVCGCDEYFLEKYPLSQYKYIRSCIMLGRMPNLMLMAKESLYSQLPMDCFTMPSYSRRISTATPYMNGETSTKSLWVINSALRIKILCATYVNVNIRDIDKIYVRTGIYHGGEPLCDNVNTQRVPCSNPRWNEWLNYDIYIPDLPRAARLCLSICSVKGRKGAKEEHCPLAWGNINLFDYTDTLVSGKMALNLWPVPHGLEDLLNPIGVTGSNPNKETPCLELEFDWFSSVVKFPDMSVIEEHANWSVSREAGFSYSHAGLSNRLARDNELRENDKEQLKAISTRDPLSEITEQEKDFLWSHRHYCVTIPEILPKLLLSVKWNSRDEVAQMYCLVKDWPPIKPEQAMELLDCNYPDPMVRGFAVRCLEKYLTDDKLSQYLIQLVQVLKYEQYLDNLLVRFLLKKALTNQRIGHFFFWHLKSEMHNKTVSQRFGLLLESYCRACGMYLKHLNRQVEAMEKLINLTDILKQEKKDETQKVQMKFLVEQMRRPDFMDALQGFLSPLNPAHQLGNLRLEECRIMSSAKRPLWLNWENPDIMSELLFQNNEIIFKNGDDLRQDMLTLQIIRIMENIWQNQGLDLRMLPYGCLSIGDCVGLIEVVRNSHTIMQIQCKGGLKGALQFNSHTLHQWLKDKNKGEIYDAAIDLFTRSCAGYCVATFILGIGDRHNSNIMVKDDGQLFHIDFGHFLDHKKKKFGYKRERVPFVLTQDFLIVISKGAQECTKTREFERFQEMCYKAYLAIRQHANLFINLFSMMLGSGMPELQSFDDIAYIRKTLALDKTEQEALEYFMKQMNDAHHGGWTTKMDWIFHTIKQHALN
Chain of human PI3K(p110α/p85α) (P27986 whole entry partner): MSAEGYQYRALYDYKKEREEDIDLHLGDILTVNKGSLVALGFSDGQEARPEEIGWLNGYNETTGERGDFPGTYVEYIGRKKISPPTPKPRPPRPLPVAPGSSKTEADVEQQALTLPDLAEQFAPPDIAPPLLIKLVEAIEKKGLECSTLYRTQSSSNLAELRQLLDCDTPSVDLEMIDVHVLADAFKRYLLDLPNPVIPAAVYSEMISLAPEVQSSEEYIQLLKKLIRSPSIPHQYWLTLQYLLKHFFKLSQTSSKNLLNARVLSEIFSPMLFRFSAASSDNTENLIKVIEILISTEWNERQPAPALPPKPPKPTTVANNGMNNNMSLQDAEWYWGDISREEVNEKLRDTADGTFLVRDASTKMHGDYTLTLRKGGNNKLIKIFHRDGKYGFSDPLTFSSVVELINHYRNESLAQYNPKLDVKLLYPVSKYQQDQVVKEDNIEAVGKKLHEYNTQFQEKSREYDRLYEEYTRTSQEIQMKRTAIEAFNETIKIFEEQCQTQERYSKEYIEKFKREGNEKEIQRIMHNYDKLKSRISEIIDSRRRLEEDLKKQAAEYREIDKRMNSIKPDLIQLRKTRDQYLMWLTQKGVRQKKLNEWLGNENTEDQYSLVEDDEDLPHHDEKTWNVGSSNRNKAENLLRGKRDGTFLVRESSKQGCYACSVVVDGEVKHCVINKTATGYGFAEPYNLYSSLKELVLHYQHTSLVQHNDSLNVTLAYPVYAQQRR
In short: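 AlphaScreen read-out: after 1 h at room temperature, GST-GRP1, biotin-PI(3,4,5)P3 and donor/acceptor beads sensed PIP3 made by the enzyme. The kinase reaction used baculovirus-made human PI3K p110α/p85α with 10 μM ATP and 4 μM PI(4,5)P2 for 15 min at 37 °C, following a 20-min compound preincubation.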

[2] = tested on: human colon cancer cell line HCT116; experiment: Cell proliferation inhibitory activity (Cell Counting Kit-8), colon cancer HCT116; type: cell-based; details: HCT-116, 96 h, HCT116, 4 days
In short: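 HCT116 cells (2000/well) were exposed to compounds for 4 days at 37 °C under CO2. Viability was then read with CCK-8 as absorbance at 450 nm (reference 615 nm).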

[3] = tested on: human lung cancer cell line NCI-H460; experiment: Cell proliferation inhibitory activity (Cell Counting Kit-8), lung cancer NCI-H460; type: cell-based; details: 96 h, NCI-H460, 4 days, read-out: Cell proliferation inhibitory activity (% Inhibition at 2.5 μM) Non-small cell lung cancer (NCI-H460)
In short: as §1

## Nc1ncc(-c2nc(N3CCOCC3)nc3c2CCN3C(=O)Nc2ccc(C(=O)N3CCOCC3)cc2)cn1 [Example D-104, 4-(2-Amino-pyrimidin-5-yl)-2-morpholin-4-yl-5,6-dihydro-pyrrolo[2,3-d]pyrimidine-7-carboxylic acid [4-(morpholine-4-carbonyl)-phenyl]-amide]
[1]
  inhibition at 2.5 µM: 34%
Human PI3K(p110α/p85α)
  IC50: 0.006 µM
[2]
  inhibition at 2.5 µM: 37%
[3]
  inhibition at 2.5 µM: 67%

## Nc1ncc(-c2nc(N3CCOCC3)nc3c2CCN3c2ccc(C(=O)NCc3cccnc3)cc2)cn1 [Example D-19, 4-[4-(2-Amino-pyrimidin-5-yl)-2-morpholin-4-yl-5,6-dihydro-pyrrolo[2,3-d]pyrimidin-7-yl]-N-pyridin-3-ylmethyl-benzamide]
[1]
  inhibition at 2.5 µM: 102%
Human PI3K(p110α/p85α)
  IC50: 0.06 µM
[2]
  inhibition at 2.5 µM: 73%
[3]
  inhibition at 2.5 µM: 97%

## Nc1ncc(-c2nc(N3CCOCC3)nc3c2CCN3c2ccc(C(=O)N3CCN(c4ccncc4)CC3)cc2)cn1 [Example D-265, {4-[4-(2-Amino-pyrimidin-5-yl)-2-morpholin-4-yl-5,6-dihydro-pyrrolo[2,3-d]pyrimidin-7-yl]-phenyl}-(4-pyridin-4-yl-piperazin-1-yl)-methanone]
[1]
  inhibition at 2.5 µM: 96%
Human PI3K(p110α/p85α)
  IC50: 0.006 µM
[2]
  inhibition at 2.5 µM: 98%
[3]
  inhibition at 2.5 µM: 71%

## CN(C)CCCNc1cc(N2CCc3c(-c4cccc(O)c4)nc(N4CCOCC4)nc32)ccn1 [Example H-12, 3-{7-[2-(3-Dimethylamino-propylamino)-pyridin-4-yl]-2-morpholin-4-yl-6,7-dihydro-5H-pyrrolo[2,3-d]pyrimidin-4-yl}-phenol]
[1]
  inhibition at 2.5 µM: 76%
Human PI3K(p110α/p85α)
  IC50: 0.02 µM
[2]
  inhibition at 2.5 µM: 82%
[3]
  inhibition at 2.5 µM: 71%

## CNC(=S)N1CCc2c(-c3cccc(O)c3)nc(N3CCOCC3)nc21 [Example C-55, 4-(3-Hydroxy-phenyl)-2-morpholin-4-yl-5,6-dihydro-pyrrolo[2,3-d]pyrimidine-7-carbothioic acid methylamide trifluoroacetic acid salt]
[1]
  inhibition at 2.5 µM: 87%
Human PI3K(p110α/p85α)
  IC50: 0.05 µM
[2]
  inhibition at 2.5 µM: 72%
[3]
  inhibition at 2.5 µM: 89%

## Nc1ncc(-c2nc(N3CCOCC3)nc3c2CCN3c2cc(C(=O)N3CCOCC3)ccc2F)cn1 [Example D-16, {3-[4-(2-Amino-pyrimidin-5-yl)-2-morpholin-4-yl-5,6-dihydro-pyrrolo[2,3-d]pyrimidin-7-yl]-4-fluoro-phenyl}-morpholin-4-yl-methanone]
[1]
  inhibition at 2.5 µM: 73%
Human PI3K(p110α/p85α)
  IC50: 0.23 µM
[2]
  inhibition at 2.5 µM: 74%
[3]
  inhibition at 2.5 µM: 76%

## Cc1ccc(C(=O)N2CCN(C)CC2)cc1NC(=O)N1CCc2c(-c3cnc(N)nc3)nc(N3CCOCC3)nc21 [Example D-223, 4-(2-Amino-pyrimidin-5-yl)-2-morpholin-4-yl-5,6-dihydro-pyrrolo[2,3-d]pyrimidine-7-carboxylic acid [2-methyl-5-(4-methyl-piperazine-1-carbonyl)-phenyl]-amide]
[1]
  inhibition at 2.5 µM: 95%
Human PI3K(p110α/p85α)
  IC50: 0.007 µM
[2]
  inhibition at 2.5 µM: 95%
[3]
  inhibition at 2.5 µM: 92%
